Reference: paper PMC5515982, “Hair analysis for the biomonitoring of pesticide exposure: comparison with blood and urine in a rat model” (Archives of Toxicology, 2016)

What was measured:
Format in all cases: in vivo, rat
[1] = Influence of hair pigmentation: concentration in white hair versus pigmented hair; settings: slope close to 1 = poor influence of pigmentation
Procedure: (§1) The animals were shaved before the experiment began to ensure that the hair collected at the end of the study accurately reflected the 90-day period of exposure. White and black hairs were collected separately, placed in aluminum foil, and stored at −20 °C until analysis. Blood was collected in EDTA tube from the tail vein, 3 h after oral administration on Day 90. Each sampling (500–750 µL) was immediately centrifuged at 5000×g for 3 min at room temperature, and plasma was separated and stored at −80 °C before analysis. For urine collection, the rats were placed in individual metabolic cages (Type 304 stainless steel, Techniplast, Zwaag, Netherlands) immediately after gavage for 24 h (from Day 88 to Day 89). The urine was collected in refrigerated tubes over a 24-h period and was weighed before storage at −20 °C.
The influence of hair pigmentation on pesticide incorporation was assessed by comparing the concentration detected in white hair versus pigmented hair which were collected and analyzed separately from each animal. […] For the majority of the chemicals tested during the current study, pigmentation seemed to have a very limited effect on the concentration in hair, and only few compounds seemed to be pigmentation sensitive.

[2] = Concentration of pesticides and metabolites in plasma of rats after 90-day gavage exposure to a pesticide mixture; settings: for Slope (linear fit), concentration in plasma versus level of exposure: exposure expressed as mg/kg per day, concentration as ng/mL, detected values only
Procedure: (§2) Eight rats were randomly assigned to each of the experimental groups. A low-calorie water gel that contained the pesticides was administered via gavage to these rats three times per week for 90 days. The doses of the pesticides mixture used for exposure were 4, 10, 20, 40, 100, 200, and 400 µg/kg of body weight. The exposure range was set as follows: The lowest dose was the lowest level allowing the detection of pesticides in hair after a 90-day exposure, based on preliminary experiments not detailed here. Testing lower levels would not have been relevant because some compounds would not be detected anymore (analytical limitation). In addition, for some other compounds, no differences were detected in the current experiment between the lowest level of exposure and the background exposure of the controls. The highest dose was set according to toxicity of compounds, which corresponded to 1/20 of the lowest LD50 (carbofuran). The animals were weighed before each administration in order to adapt the amount of pesticide-containing mixture to the animals’ weight.
as §1
(§3) Depending on the compounds, only parent pesticides, only metabolites, or both parent and metabolites were analyzed in the biological matrices. The chemicals were analyzed as previously described (Chata et al. [2016]; Hardy et al. [2015]). Despite the different nature of the biological matrices analyzed (liquid vs. solid), method protocols were developed to ensure similarity so they could be reliably compared to the information obtained from each matrix, thereby ensuring that differences were not likely attributable to analytical bias. […] Because analytical background noise was absent from the chromatograms because tandem mass spectrometry was used, the approaches based on background noise for determining the limit of detection (LOD) were not applicable. The LOD was therefore determined as the lowest concentration that was detected in the samples analyzed during this study. Selectivity was ensured by analyte retention time and by the quantification transition to confirmation transition ratio that had to be lower than the 20% difference from the ratio obtained with standard compounds. The LOD ranged from 0.02 pg/mg for β-endosulfan to 2.7 pg/mg for dichlorodiphenyltrichloroethane (p,p′-DDT) in hair, from 0.2 pg/mL for trifluralin to 13.6 ng/mL for 2-isopropoxyphenol (2-IPP) in urine, and from 2.4 pg/mL for β-endosulfan to 679 pg/mL for p,p′-DDT in plasma. Because the analysis of parent pesticides and metabolites was conducted on the same hair sample, the addition of parent organophosphate isotope-labeled analog standards was not possible because their degradation into non-labeled dialkyl phosphate (DAP) during the analytical procedure would have hindered the analysis of DAP due to exposure. In hair, only organophosphate metabolites (not parents) were therefore quantified, and only qualitative results were obtained for parents.
(§4) The association between the level of exposure and the analyte concentration in the matrix (i.e., hair, urine, and plasma) was assessed by the Pearson product-moment correlation coefficient (R Pearson). […]

[3] = Concentration of pesticides and metabolites in 24-h urine of rats after 90-day gavage exposure to a pesticide mixture; settings: urine; for Slope (linear fit), concentration in urine versus level of exposure: exposure expressed as mg/kg per day, concentration as ng/mL, detected values only
Procedure: as §2, §1, §3, §4

[4] = Concentration of pesticides and metabolites in hair of rats after 90-day gavage exposure to a pesticide mixture; settings: for Slope (linear fit), concentration in hair versus level of exposure: exposure expressed as mg/kg per day, concentration as pg/mg, detected values only
Procedure: as §2, §1, §3, §4

| SMILES | Slope, concentration in white hair versus pigmented hair [1] | Slope (linear fit), concentration in plasma versus level of exposure [2] | Slope (linear fit), concentration in urine versus level of exposure [3] | Slope (linear fit), concentration in hair versus level of exposure [4] | Exposure level from which detected in plasma [2] | Exposure level from which detected in hair [4] | Concentration range in plasma (detection) ([2]; ND = not detected, whatever the level of exposure) | Exposure level from which detected in urine [3] | Concentration in plasma relative to cypermethrin ([2]; at equal level of exposure) | Concentration in plasma relative to permethrin ([2]; at equal level of exposure) |
| --- | --- | --- | --- | --- | --- | --- | --- | --- | --- | --- |
| CC(C)Oc1ccccc1O [2-IPP, 2-isopropoxyphenol] | 0.692 | 10.4 | 1.0 E + 06 | 26.3 | – | – | – | – | – | – |
| O=C(O)c1cccc(Oc2ccccc2)c1 [3-PBA, 3-phenoxybenzoic acid] | 1.070 | 422 | 1.5 E + 05 | 7.08 | – | – | – | – | – | – |
| CC1(C)Cc2cccc(O)c2O1 [Carbofuran phenol] | 1.109 | 1.73 | 1.0 E + 06 | 35.10 | – | – | – | – | – | – |
| CC1(C)C(C=C(Cl)Cl)C1C(=O)O (stereo not drawn) [Cl2CA, 3-(2,2-dichlorovinyl)-2,2-dimethylcyclopropane-1-carboxylic acid] | 0.498 | 139 | 1.0 E + 06 | 49.20 | – | – | – | – | – | – |
| CC1(C)C(C=C(Cl)C(F)(F)F)C1C(=O)O (stereo not drawn) [ClCF3CA, 3-(2-chloro-3,3,3-trifluoro-1-propenyl)-2,2-dimethylcyclopropane carboxylic acid] | 0.220 | 9.79 | 1.6 E + 05 | 5.22 | – | – | – | – | – | – |
| CC1(C)C(C=C(Cl)Cl)C1C(=O)OC(C#N)c1cccc(Oc2ccccc2)c1 (stereo not drawn) [Cypermethrin] | 0.495 | 10.1 | – | – | 10 µg/kg | 200 µg/kg | – | – | – | – |
| CCOP(O)(=S)OCC [DETP, diethylthiophosphate] | 0.608 | 3.26 | 9.9 E + 05 | 10.47 | – | – | – | – | – | – |
| CCOP(=S)(OCC)Oc1cc(C)nc(C(C)C)n1 [Diazinon] | – | – | – | – | – | – | not detected | – | – | – |
| N#Cc1nn(-c2c(Cl)cc(C(F)(F)F)cc2Cl)c(N)c1[S+]([O-])C(F)(F)F (stereo not drawn) [Fipronil] | 1.017 | – | 2 016 | 31.5 | – | – | – | 10 µg/kg | – | – |
| CC1(C)C(C=C(Cl)Cl)C1C(=O)OCc1cccc(Oc2ccccc2)c1 (stereo not drawn) [Permethrin] | – | 1.04 | – | – | 100 µg/kg | – | – | – | – | – |
| CC1(C)C(/C=C(\Cl)C(F)(F)F)C1C(=O)OC(C#N)c1cccc(Oc2ccccc2)c1 (stereo not drawn) [λ-Cyhalothrin] | 1.079 | 116 | – | 5.050 | 4 µg/kg | 20 µg/kg | – | – | approximately 10 times | approximately 100 times |
